Laboratory results as given in US11485742B2, “2-azaspiro[3.4]octane derivatives as M4 agonists” (NOVARTIS AG, priority 2019, dated 2022).

Key:
[1] = biological target: T1, human cloned CHRM4 receptor (Homo sapiens, UniProt P08173); assay: CHRM4 Ca++ Flux Assay (M4_CHO cells, agonist mode); type: cell-based; settings: for Emax / M4 FDSS PA %: Percent Activity (PA); for Emax: read-out: M4 FDSS PA %; for EC50: geometric mean if tested more than once, read-out: M4 FDSS EC50
T1 construct: expressed in transfected cells; host or cells: CHO-K1 (M4_CHO)
T1 sequence (P08173 1-479): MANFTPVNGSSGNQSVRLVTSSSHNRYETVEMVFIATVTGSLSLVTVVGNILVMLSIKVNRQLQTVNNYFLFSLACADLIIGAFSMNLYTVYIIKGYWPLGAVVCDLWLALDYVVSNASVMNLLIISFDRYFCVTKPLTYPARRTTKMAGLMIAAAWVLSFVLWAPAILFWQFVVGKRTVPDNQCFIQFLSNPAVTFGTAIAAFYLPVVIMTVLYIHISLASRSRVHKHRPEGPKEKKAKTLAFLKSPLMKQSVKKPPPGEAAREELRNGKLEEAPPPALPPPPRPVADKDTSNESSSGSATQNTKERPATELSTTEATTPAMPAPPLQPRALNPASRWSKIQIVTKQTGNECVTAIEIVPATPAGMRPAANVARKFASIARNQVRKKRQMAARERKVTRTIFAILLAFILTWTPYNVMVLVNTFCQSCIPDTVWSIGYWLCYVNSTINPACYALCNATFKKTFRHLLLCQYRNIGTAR
Procedure: (§1) The above examples were characterized by measuring the intracellular mobilization of Ca^++ ions caused by signaling events mediated by the receptor. The Intra-cellular Calcium flux levels were captured by the highly sensitive Ca^++ indicator, Calcium Assay Kit (BD Biosciences; Catalog Number 640178. The fluorescent activity from all receptors were monitored by the fluorescent imager, FDSS 7000EX (Hamamatsu) over a span of 3 minutes. The change in Calcium flux was readily captured upon activation with the muscarinic orthosteric agonist, Carbachol.
(§2) CHO-K1 cells stably expressing the human cloned CHRM4 receptor (M4_CHO cells) were grown and maintained in a monolayer culture with F12/HAM (Life Technologies) supplemented with 10% Fetal Bovine Serum, 1X Pen-Strep, and 0.4 mg/mL Geneticin in a humidified atmosphere (5% CO2) at 37° C. The cultures were grown to 80-90% confluency in T150 flasks (Corning) and washed with 1×DPBS then lifted with 0.05% Trypsin (Life Technologies). The cells were harvested in growth media then spun (1K rpm, 3 minutes) and cryopreserved using Recovery Cell Culture Freezing Media (Gibco Technologies). Cells were stored in liquid nitrogen and thawed a day before the assay.
Prior to the day of the assay, stable M4_CHO cells were thawed and plated on 384 well black walled clear bottom TC treated plates (Greiner Cat #781091) at 12K cells/well using F12/HAM Media supplemented with 10% FBS (Life Technologies) and kept overnight in a humidified atmosphere (5% CO2) at 37° C. The next day, cells were loaded with 20 μL Ca^++ dye (BD Biosciences) using Loading Buffer (HBSS +Ca/+Mg, 20 mM HEPES, 2.5 mM Probenecid) and placed back in cell incubator for a minimum of 1 hour. After incubation, the dye was replaced with 45 μL Assay Buffer (HBSS −Ca/−Mg, 20 mM HEPES, 2.5 mM Probenecid) supplemented with 20 μM ATP (Sigma Aldrich) and kept at room temperature in the dark for 60 minutes before running on a cell imager. The FDSS 7000EX (Hamamatsu) was used to capture Ca^++ traces for a span of 3 minutes from cells treated with 11 point dose of compound in triplicate in order to generate dose response curves in agonist mode. All compounds were serially diluted in DMSO then prepared in Assay Buffer for Ca^++ flux studies. The dose response curves were generated from the average of triplicate wells obtained from each data point and used a non-linear regression of four parameter dose response algorithm. The Percent Activity (PA) was measured to EC100 of Carbachol.
(§3) If an Example was tested more than once in an assay, then the values below represent the geometric mean of the results from each independent experiment.

[2] = biological target: T2, human cloned CHRM2 receptor (Homo sapiens, UniProt P08172); assay: CHRM2 Ca++ Flux Assay (M2_CHO cells, agonist mode); type: cell-based; settings: M2 CHO cells; for EC50: agonist mode, geometric mean if tested more than once, read-out: M2 FDSS EC50; for Emax / M2 FDSS PA %: Percent Activity (PA) measured to EC100 of Carbachol; for Emax: read-out: M2 FDSS PA %
T2 construct: expressed in transfected cells; host or cells: CHO-K1 (M2_CHO)
T2 sequence (P08172 1-466): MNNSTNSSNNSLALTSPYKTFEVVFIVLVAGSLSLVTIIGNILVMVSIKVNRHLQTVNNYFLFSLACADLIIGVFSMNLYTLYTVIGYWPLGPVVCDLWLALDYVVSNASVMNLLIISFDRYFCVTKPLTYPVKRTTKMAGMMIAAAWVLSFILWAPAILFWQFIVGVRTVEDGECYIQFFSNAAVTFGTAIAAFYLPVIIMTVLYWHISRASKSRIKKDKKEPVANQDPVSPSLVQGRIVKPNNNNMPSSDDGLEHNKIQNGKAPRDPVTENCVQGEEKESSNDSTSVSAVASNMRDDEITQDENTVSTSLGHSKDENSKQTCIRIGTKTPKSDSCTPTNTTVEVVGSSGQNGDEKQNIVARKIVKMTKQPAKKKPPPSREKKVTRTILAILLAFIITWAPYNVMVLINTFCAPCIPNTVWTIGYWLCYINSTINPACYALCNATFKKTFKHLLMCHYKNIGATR
Procedure: as §1
as §2, with “cloned CHRM2” for “cloned CHRM4”, “receptor (M2_CHO” for “receptor (M4_CHO”, “Serum, 1×Pen-Strep,” for “Serum, 1X Pen-Strep,”, “1×DPBS and” for “1×DPBS then”, “were” for “were harvested in growth media”, “and frozen” for “and cryopreserved”
Prior to the day of the assay, stable M2 CHO cells were thawed and plated on Greiner 384 well TC treated plate at a density of 12K cells/well and kept overnight in a humidified atmosphere (5% CO2) at 37° C. The following day, the cells were loaded with Ca^++ dye (BD Biosciences) using Loading Buffer (HBSS +Ca/+Mg, 20 mM HEPES, 2.5 mM Probenecid) and placed back in cell incubator for a minimum of 1 hour and maximum of 2 hours. After incubation, the dye was replaced with Assay Buffer (HBSS −Ca/−Mg, 20 mM HEPES, 2.5 mM Probenecid) supplemented with 20 μM ATP (Sigma Aldrich) and kept at room temperature for 60 minutes prior before running on cell imager. The FDSS 7000EX (Hamamatsu) was used to acquire Ca^++ traces from cells in response to compound treatment and the data was used to generate dose response curves in agonist mode. All compounds were serially diluted in DMSO then prepared in Assay Buffer for Ca^−+ flux studies. The dose response curves were generated from the average of triplicate wells obtained from each data point and used a non-linear regression of four parameter dose response algorithm. The Percent Activity (PA) was measured to EC100 of Carbachol.
as §3

| SMILES | Emax [1] | EC50 [1] | EC50 [2] | Emax [2] | M4 FDSS PA % [1] | M2 FDSS PA % [2] |
| --- | --- | --- | --- | --- | --- | --- |
| Fc1ccc(C2CCOCC2)c(C2CCN([C@@H]3COC4(C3)CN(c3ncco3)C4)CC2)c1 [Example 4W, (S)-7-(4-(5-fluoro-2-(tetrahydro-2H-pyran-4-yl)phenyl)piperidin-1-yl)-2-(oxazol-2-yl)-5-oxa-2-azaspiro[3.4]octane] | 75% | 21 nM | 5.16 µM | 21% | – | – |
| Fc1ccc(OC[C@@H]2COCCO2)c(C2CCN([C@@H]3COC4(C3)CN(c3nnco3)C4)CC2)c1 [Example 1F, (S)-7-(4-(2-(((S)-1,4-dioxan-2-yl)methoxy)-5-fluorophenyl)piperidin-1-yl)-2-(1,3,4-oxadiazol-2-yl)-5-oxa-2-azaspiro[3.4]octane] | 78% | 30 nM | 0.39 µM | 31% | – | – |
| OC[C@H]1C[C@H](Oc2ccc(F)cc2C2CCN([C@@H]3COC4(C3)CN(c3nnco3)C4)CC2)C1 (single isomer, unassigned) [Example 2HH, ((1S,3r)-3-(2-(1-((S)-2-(1,3,4-oxadiazol-2-yl)-5-oxa-2-azaspiro[3.4]octan-7-yl)piperidin-4-yl)-4-fluorophenoxy)cyclobutyl)methanol or ((1R,3s)-3-(2-(1-((S)-2-(1,3,4-oxadiazol-2-yl)-5-oxa-2-azaspiro[3.4]octan-7-yl)piperidin-4-yl)-4-fluorophenoxy)cyclobutyl)methanol] | – | 124 nM | 6.57 µM | – | 85% | 25% |
| c1ccc(C2CCN([C@@H]3COC4(C3)CN(c3ncco3)C4)CC2)c(OC2CC3(COC3)C2)c1 [Example 4M, (S)-7-(4-(2-((2-oxaspiro[3.3]heptan-6-yl)oxy)phenyl)piperidin-1-yl)-2-(oxazol-2-yl)-5-oxa-2-azaspiro[3.4]octane] | 82% | 86 nM | > 25 µM | 0% | – | – |
| CC(C)(C#N)COc1ccc(F)cc1C1CCN([C@@H]2COC3(C2)CN(c2nnco2)C3)CC1 [Example 1E, (S)-3-(2-(1-(2-(1,3,4-oxadiazol-2-yl)-5-oxa-2-azaspiro[3.4]octan-7-yl)piperidin-4-yl)-4-fluorophenoxy)-2,2-dimethylpropanenitrile] | 78% | 27 nM | 0.557 µM | 32% | – | – |
| Fc1cc(OCC2(F)COC2)c(C2CCN([C@@H]3COC4(C3)CN(c3ncco3)C4)CC2)cc1F [Example 4P, (S)-7-(4-(4,5-difluoro-2-((3-fluorooxetan-3-yl)methoxy)phenyl)piperidin-1-yl)-2-(oxazol-2-yl)-5-oxa-2-azaspiro[3.4]octane] | 63% | 5 nM | 10.5 µM | 28% | – | – |
| COc1ccccc1C1CCN([C@@H]2COC3(C2)CN(c2ncns2)C3)CC1 [Example 5B, (S)-7-(4-(2-methoxyphenyl)piperidin-1-yl)-2-(1,2,4-thiadiazol-5-yl)-5-oxa-2-azaspiro[3.4]octane] | 59% | 87 nM | > 25 µM | 0% | – | – |
| Fc1cc(F)c(OC2CCOCC2)c(C2CCN([C@@H]3COC4(C3)CN(c3nnco3)C4)CC2)c1 [Example 2BB, (S)-7-(4-(3,5-difluoro-2-((tetrahydro-2H-pyran-4-yl)oxy)phenyl)piperidin-1-yl)-2-(1,3,4-oxadiazol-2-yl)-5-oxa-2-azaspiro[3.4]octane] | 91% | 946 nM | 4.85 µM | 27% | – | – |
| Fc1cc(O[C@@H]2CCOC2)c(C2CCN([C@@H]3COC4(C3)CN(c3nncs3)C4)CC2)cc1F [Example 5M, (S)-7-(4-(4,5-difluoro-2-(((R)-tetrahydrofuran-3-yl)oxy)phenyl)piperidin-1-yl)-2-(1,3,4-thiadiazol-2-yl)-5-oxa-2-azaspiro[3.4]octane] | 73% | 58 nM | 0.415 µM | 34% | – | – |
| Fc1ccc(OC[C@@H]2CCOC2)c(C2CCN([C@@H]3COC4(C3)CN(c3nncs3)C4)CC2)c1 [Example 5I, (S)-7-(4-(5-fluoro-2-(((R)-tetrahydrofuran-3-yl)methoxy)phenyl)piperidin-1-yl)-2-(1,3,4-thiadiazol-2-yl)-5-oxa-2-azaspiro[3.4]octane] | 71% | 20 nM | 0.545 µM | 43% | – | – |
| Fc1cc(F)c(O[C@@H]2CCOC2)c(C2CCN([C@@H]3COC4(C3)CN(c3nnco3)C4)CC2)c1 [Example 2CC, (S)-7-(4-(3,5-difluoro-2-(((R)-tetrahydrofuran-3-yl)oxy)phenyl)piperidin-1-yl)-2-(1,3,4-oxadiazol-2-yl)-5-oxa-2-azaspiro[3.4]octane] | 79% | 168 nM | 2.07 µM | 37% | – | – |
| CC1(C)C[C@@H](Oc2ccc(F)cc2C2CCN([C@@H]3COC4(C3)CN(c3nnco3)C4)CC2)CO1 (single isomer, unassigned) [Example 2N, (S)-7-(4-(2-(((R)-5,5-dimethyltetrahydrofuran-3-yl)oxy)-5-fluorophenyl)piperidin-1-yl)-2-(1,3,4-oxadiazol-2-yl)-5-oxa-2-azaspiro[3.4]octane or (S)-7-(4-(2-(((S)-5,5-dimethyltetrahydrofuran-3-yl)oxy)-5-fluorophenyl)piperidin-1-yl)-2-(1,3,4-oxadiazol-2-yl)-5-oxa-2-azaspiro[3.4]octane] | – | 289 nM | 4.24 µM | – | 65% | 20% |
